The values below come from US20220387602A1, “BIFUNCTIONAL DEGRADERS AND THEIR METHODS OF USE” (NOVARTIS AG, priority 2019, published 2022).

The target in test [1] is T1, CRBN (Homo sapiens, UniProt Q96SW2). The experiment in a line: CRBN displacement assay Format 1 (fluorescence polarization, BodipyFL-lenalidomide probe Compound HH). The format is binding. On the procedure:
(§1) Compounds were tested in the following biochemical and cellular assays.
(§2) BodipyFL conjugated lenalidomide compound HH was used as a fluorescent probe. […] Protein and substrate were diluted in assay buffer.
All protein and probe containing solutions were handled in ‘Maxymum Recovery’ tubes (Axygen Scientific Inc., Union City, USA). […] For the plate measurements a PHERAstar reader (BMG Labtech, Offenburg, Germany) was used. The instrument was equipped with a specific optics module containing filters and dichoic mirrors for measuring the fluorescence polarization-type assay. With this module, the fluorescence of the Bodipy FL-based probe was excited at 485 nm and the emissions of the product were measured at 520 nm. The fluorescence in each well was excited by 10 flashes per measurement.
For the determination of AC50 values, the assays were performed at room temperature in 384-well plates with a total assay volume of 10.1 μL per well. The test compound was dissolved in 90% (v/v) DMSO/water. For the assays, 100 nL of the 90% (v/v) DMSO/water solution or compound solution were added per well, followed by the addition of 5 μL protein solution (protein in 1× assay buffer).
(§3) The final assay concentration of the protein was nominally 100 nM. After 45 minutes of pre-incubation at room temperature, the competition for binding was started by the addition of 5 μL probe solution (probe dissolved in assay buffer). The final concentration of the probes in the assays was 5 nM. After the addition of the probe solution, the final DMSO concentration in the assay was 0.9% (v/v). The effect of the probe on the pre-established compound-protein complex equilibrium was determined after 45 minutes (t=45 min). The AC50 value was calculated from the plot of percentage of protein saturation versus the test compound concentration by a logistics fit according to: y=A^2+(A^1−A^2)/(1+(x/AC50)^p), where y is the %-saturation value at the test compound concentration, x. A^1 is the lowest saturation value, i.e., 0%, and A^2 the maximum saturation value, i.e. 100%. The exponent, p, is the Hill coefficient.

The target of test [2] is T1, CRBN. The experiment in a line: CRBN displacement assay Format 2a (fluorescence polarization, 1536-well, Envision reader). Type of test: binding. To be noted: for CRBN Amax* (% at 50 μM) Format 2a: greatest effect as % displacement of the reference probe at the highest concentration tested (50 μM), given where AC50 >50 μM, 45 min. The procedure: as §1, §2
The fluorescence of the Bodipy FL-based probe was excited at 480 nm and the emissions of the product were measured at 535 nm. The fluorescence in each well was excited by 30 flashes per measurement.
For the determination of AC50 values, assays were performed at room temperature in 1536-well plates with a total assay volume of 6.03 μL per well. The test compounds were dissolved and diluted in 100% DMSO. For the assays, 30 nL of DMSO or compound solution were added per well, followed by the addition of 3 μL protein solution (80 nM protein in 1× assay buffer).
as §3, with “nominally 40” for “nominally 100”, “of 3” for “of 5”, “solution (10 nM probe” for “solution (probe”, “the probe” for “the probes”, “was 0.5%” for “was 0.9%”
In general terms: In fluorescence polarisation assays a small probe gives low polarisation when free and higher when bound to something large.

The mark [3] stands for this setting: concentration at which 50% of reference probe Compound HH is displaced, 100 nM protein, 5 nM probe, Table 4, read-out: CRBN AC50 [μM] Format 1.
The mark [4] stands for this setting: concentration at which 50% of reference probe Compound HH is displaced, 40 nM protein, 5 nM probe, read-out: CRBN AC50 [μM] Format 2a.

T1 sequence (Q96SW2 whole entry): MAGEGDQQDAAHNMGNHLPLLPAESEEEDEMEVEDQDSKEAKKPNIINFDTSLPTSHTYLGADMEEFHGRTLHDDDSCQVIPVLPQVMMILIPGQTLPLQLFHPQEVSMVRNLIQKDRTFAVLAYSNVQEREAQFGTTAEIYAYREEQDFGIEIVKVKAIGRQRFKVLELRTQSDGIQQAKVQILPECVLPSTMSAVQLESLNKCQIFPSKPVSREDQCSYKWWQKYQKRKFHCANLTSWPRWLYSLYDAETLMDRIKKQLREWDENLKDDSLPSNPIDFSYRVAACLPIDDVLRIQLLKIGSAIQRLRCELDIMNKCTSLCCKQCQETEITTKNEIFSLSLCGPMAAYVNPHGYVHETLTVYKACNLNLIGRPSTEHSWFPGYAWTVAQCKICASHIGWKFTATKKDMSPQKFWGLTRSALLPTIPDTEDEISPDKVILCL

As for `COc1ccc(C(=O)N2CCC3(CCNCC3)CC2)cc1N1CCC(=O)NC1=O` [ILB-56, 1-(2-methoxy-5-(3,9-diazaspiro[5.5]undecane-3-carbonyl)phenyl)dihydropyrimidine-2,4(1H,3H)-dione], the figures for the concentration at half-maximal activity (AC50) at CRBN [1] and at CRBN [2] were 1.26 µM and 0.23 µM, respectively.

Regarding `O=C1CCN(c2ccc(C(=O)O)cc2)C(=O)N1` [ILB-31], the AC50 (usually the concentration at which the activity in the assay is half-maximal) on CRBN [1] (setting [3]) was 9.64 µM; on CRBN [2] (setting [4]) it was 5.1 µM.

On to `O=CCOc1cccc(N2CCC(=O)NC2=O)c1` [ILB-18, 2-(3-(2,4-Dioxotetrahydropyrimidin-1(2H)-yl)phenoxy)acetaldehyde], for which the results for the AC50 on CRBN [1] (setting [3]) and at CRBN [2] (setting [4]) were 11.2 µM and 3.79 µM, respectively.

Regarding `O=C1CCN(Cc2cccc(CCO)c2)C(=O)N1` [ILB-7, 1-(3-(2-Hydroxyethyl)benzyl)dihydropyrimidine-2,4(1H,3H)-dione], on CRBN [1], the activity was half-maximal at 61.2 µM (AC50). Moreover, on CRBN [2], the half-maximal activity concentration (AC50) is greater than 50 µM and the “CRBN Amax* (% at 50 μM) Format 2a” value is given as 40%.

In the case of `O=C(O)COc1ccc(N2CCC(=O)NC2=O)cc1` [ILB-14, 2-(4-(2,4-Dioxotetrahydropyrimidin-1(2H)-yl)phenoxy)acetic acid], the figures for the AC50 on CRBN [1] (setting [3]) and on CRBN [2] (setting [4]) were 13 µM and 5.79 µM, respectively.

In the case of `Cc1ccc(OCC(=O)O)cc1N1CCC(=O)NC1=O` [ILB-20, 2-(3-(2,4-Dioxotetrahydropyrimidin-1(2H)-yl)-4-methylphenoxy)acetic acid], the AC50 was found to be 5.37 µM on CRBN [1] (setting [3]) and 2.01 µM at CRBN [2] (setting [4]).

As for `O=C1CCN(Cc2cccn(CCN3CCC(OC4CCNCC4)CC3)c2=O)C(=O)N1` [ILB-6, 1-((2-oxo-1-(2-(4-(piperidin-4-yloxy)piperidin-1-yl)ethyl)-1,2-dihydropyridin-3-yl)methyl)dihydropyrimidine-2,4(1H,3H)-dione], the values for the AC50 at CRBN [1] and at CRBN [2] were 19.8 µM and 8.36 µM, respectively.

As to `O=C1CCN(c2cc(C(=O)O)ccc2F)C(=O)N1` [ILB-27, 3-(2,4-dioxotetrahydropyrimidin-1(2H)-yl)-4-fluorobenzoic acid], the AC50 is 3.03 µM on CRBN [1] (setting [3]) and 0.74 µM at CRBN [2] (setting [4]).

On to `O=C(O)COc1cccc(N2CCC(=O)NC2=O)c1` [ILB-16, 2-(3-(2,4-Dioxotetrahydropyrimidin-1(2H)-yl)phenoxy)acetic acid], for which the results for the AC50 on CRBN [1] (setting [3]) and at CRBN [2] (setting [4]) were 11.7 µM and 7.34 µM, respectively.

As for `Cc1ccc(OCC=O)cc1N1CCC(=O)NC1=O` [ILB-19, 2-(3-(2,4-dioxotetrahydropyrimidin-1(2H)-yl)-4-methylphenoxy)acetaldehyde], the AC50 at CRBN [1] (setting [3]) was found to be 2.51 µM; on CRBN [2] (setting [4]) it was 0.8 µM.

`CC(C)(C)OC(=O)NCC#Cc1cc(F)c(N2CCC(=O)NC2=O)c(F)c1` [ILB-43, tert-Butyl (3-(4-(2,4-dioxotetrahydropyrimidin-1(2H)-yl)-3,5-difluorophenyl)prop-2-yn-1-yl)carbamate]: the AC50 came to 2.99 µM on CRBN [1] and 2.93 µM at CRBN [2].

For `Cc1cc(OCC(=O)O)ccc1N1CCC(=O)NC1=O` [ILB-15], the AC50 stood at 7.37 µM on CRBN [1] (setting [3]) and 2.61 µM at CRBN [2] (setting [4]).

`O=C1CCN(c2cccc(C(=O)O)c2)C(=O)N1` [ILB-28, 3-(2,4-dioxotetrahydropyrimidin-1(2H)-yl)benzoic acid]: the AC50 was determined as 3.41 µM on CRBN [1] (setting [3]) and 1.3 µM at CRBN [2] (setting [4]).

For `COc1ccc(C(=O)N2CCC(OC3CCNCC3)CC2)cc1N1CCC(=O)NC1=O` [ILB-59, 1-(2-methoxy-5-(4-(piperidin-4-yloxy)piperidine-1-carbonyl)phenyl)dihydropyrimidine-2,4(1H,3H)-dione], the AC50 at CRBN [1] is 1.36 µM; at CRBN [2], 0.34 µM.

As to `O=C1CCN(c2c(F)cc(C#CC3CCNCC3)cc2F)C(=O)N1` [ILB-38, 1-(2,6-difluoro-4-(piperidin-4-ylethynyl)phenyl)dihydropyrimidine-2,4(1H,3H)-dione], the figures for the AC50 on CRBN [1] (setting [3]) and on CRBN [2] (setting [4]) were 8.44 µM and 6.02 µM, respectively.

For `O=C1CCN(c2ccc(OCC(=O)N3CCC(OC4CCNCC4)CC3)cc2)C(=O)N1` [ILB-55, 1-(4-(2-Oxo-2-(4-(piperidin-4-yloxy)piperidin-1-yl)ethoxy)phenyl)dihydropyrimidine-2,4(1H,3H)-dione], the concentration at half-maximal activity (AC50) at CRBN [1] was 14.4 µM; at CRBN [2], 4.04 µM.

For `O=C1CCN(Cc2cc(C(=O)O)ccn2)C(=O)N1` [ILB-8, 2-((2,4-Dioxotetrahydropyrimidin-1(2H)-yl)methyl)isonicotinic acid], the AC50 at CRBN [1] was greater than 100 µM; at CRBN [2], greater than 50 µM. Moreover, the “CRBN Amax* (% at 50 μM) Format 2a” value on CRBN [2] is 21%.

As to `COc1cc(C(=O)O)ccc1N1CCC(=O)NC1=O` [ILB-81, 4-(2,4-dioxotetrahydropyrimidin-1(2H)-yl)-3-methoxybenzoic acid], the values for the AC50 on CRBN [1] (setting [3]) and on CRBN [2] (setting [4]) were 12.3 µM and 2.38 µM, respectively.

For `C#Cc1cccc(N2CCC(=O)NC2=O)c1` [ILB-33, 1-(3-ethynylphenyl)dihydropyrimidine-2,4(1H,3H)-dione], the AC50 on CRBN [1] (setting [3]) is 6.52 µM; at CRBN [2] (setting [4]), 2.68 µM.
